Our source for the RP-LC retention time values is the METLIN SMRT retention time set (Domingo-Almenara et al. 2019).

The series in a line: gradient 5% acetonitrile 3 min, to 50% in 2 min, to 85% in 15 min, held 3 min, 100 µL/min. As to conditions: column: Zorbax Extend-C18 2.1 x 50 mm; eluents: water / acetonitrile, 0.1% formic acid. The essentials: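 The mobile phases were water and acetonitrile, each with 0.1% formic acid, pumped at 100 μL/min through a Zorbax Extend-C18 column (2.1 × 50 mm, 1.8 μm). Pure standards were injected as mixtures of ~100 molecules and detected by a quadrupole time-of-flight mass spectrometer in positive and negative ionization mode. Retention time came from computationally picked adduct peaks, each inspected by hand.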
`CCCCc1ccc(NC(=O)N2CCC(c3cc(N)on3)CC2)cc1`: the RP-LC retention time was determined as 876 s. As for `O=C(Nc1ccc(Cl)cc1)c1cccnc1-n1cc(-c2ccncc2)cn1`, the RP-LC retention time amounted to 653 s.

Take `CCN(CCN(C)C)c1ccc(C(=O)O)cc1NS(=O)(=O)c1cc(F)ccc1F`: the RP-LC retention time is 611 s. As for `CCCS(=O)(=O)c1nc2ccc(NS(=O)(=O)c3ccccc3)cc2s1`, the RP-LC retention time was 879 s. Compound `CCc1ccc(-c2ccc(-n3nc(C)c(S(=O)(=O)NC4CC4)c3C)nn2)cc1` had an RP-LC retention time of 1070 s. `CCCN(C)S(=O)(=O)c1cc(-c2nnc(C(C)C)o2)co1` registered an RP-LC retention time of 872 s. For `Cc1cc(C)c(CNC(=O)c2ccc(NC(=O)C3CC3)cc2N2CCOCC2)c(C)c1` the value was 901 s. To `CCc1ccc2[nH]c3c(c(=O)c2c1)CN(CC(=O)Nc1cccc(C#N)c1)CC3` belongs 626 s; to `CCC(=O)OCCN1C(=O)c2cccc3c(N4CCCCC4)ccc(c23)C1=O`, 1170 s. To `O=C(NCc1ccc(N2CCOCC2)nc1)c1cc(F)cc(F)c1` belongs 606 s.

In turn, `COc1ccc(-c2nc3ccc(Br)cn3c2Nc2ccccc2C)cc1` gave an RP-LC retention time of 830 s.

With `O=C(NC1CCCCCC1)c1ccc(CN2CCN(C3CCCC3)C(=O)C2=O)cc1`, the RP-LC retention time was determined as 823 s. Compound `Cc1cc(C)n(Cc2ccc(C(=O)N3CCN(c4cc(=O)n(C(C)C)c(=O)n4C(C)C)CC3)o2)n1` displayed an RP-LC retention time of 772 s.

As for `Cc1ccc(-c2nc3ncccn3c2NCc2ccccc2)cc1`, the RP-LC retention time turned out to be 729 s. `CC(C)Cn1cc(S(=O)(=O)Nc2ccc(F)c(F)c2)c2cccnc21` gave an RP-LC retention time of 994 s. For `COc1ccccc1C(=O)N1CCN(c2cnn3c(C)nnc3c2)CC1` the value was 601 s; for `CN1CCN(S(=O)(=O)c2ccc3nn(Cc4cccc(F)c4)c(=O)n3c2)CC1`, 964 s; for `Cn1cc(S(=O)(=O)N2CCCC2)cc1C(=O)N1CCn2c1nc1ccccc12`, 652 s. For `Cc1noc(C2CN(C(=O)Nc3ccc(F)c(Cl)c3)CC23CCOCC3)n1` (stereo not drawn) the value was 783 s.

Turning to `Cc1cc2nc(C(=O)N3CCN(c4ccccn4)CC3)c(=O)n(C)c2cc1C`, the RP-LC retention time turned out to be 597 s.

The compound `Cc1ccc(CNC(=O)c2ncn3c2C(=O)N(C2CC2)C(C)(C(=O)NCc2ccc(F)cc2)C3)cc1` (stereo not drawn) showed an RP-LC retention time of 799 s. In turn, `O=C(Nc1nnc(Cc2ccc3c(c2)OCCO3)o1)c1sc2ccccc2c1Cl` showed an RP-LC retention time of 950 s. To `COc1cn(CC(=O)Nc2ccc(C)c(Cl)c2)c(CN2CCN(C(C)=O)CC2)cc1=O` belongs 595 s.

The compound `CCCNC(=O)C1CCN(c2ccc(SCC(=O)Nc3cccc(F)c3)nn2)CC1` had an RP-LC retention time of 645 s. `CCOc1ncccc1C(=O)NCc1cc(-c2cccs2)on1`: the RP-LC retention time is 831 s. As for `CC(C)c1nnc(-c2coc(S(=O)(=O)N3CCCCC3C)c2)o1` (stereo not drawn), the RP-LC retention time was 904 s.

For `O=C1CCC2(C(=O)NCCN3CCOCC3)CCCC=C2N1c1ccccc1` (stereo not drawn), the RP-LC retention time was 553 s. To `CCOc1ccc(NC(=O)C2CCCN(c3ncnc4c3oc3ccccc34)C2)cc1` (stereo not drawn) belongs 816 s; to `CCc1ccc(NC(=O)c2c(C)sc3ncnc(N4CCCC4)c23)cc1`, 975 s. For `CCNC(=O)C1(CCO)CCN(c2ncccn2)C1` (stereo not drawn), the RP-LC retention time stood at 539 s. Take `CN(C)c1cc2c(cc1NC(=O)C1CC1)n(C)c(=O)c(=O)n2C`: the RP-LC retention time was 608 s. For `Cc1cccc(-c2noc(CN3C(=O)COc4ccccc43)n2)c1` the value was 1030 s; for `CCOC(=O)C1CCN([C@H]2CS(=O)(=O)C[C@@H]2S(=O)(=O)c2ccc(F)cc2)CC1`, 889 s. To `COc1ccccc1NC(=O)Cn1nc2cc(C)nc(-c3ccccc3)n2c1=O` belongs 819 s; to `COc1ccc(OC)c(NC(=O)c2[nH]c3cc(C)sc3c2CN(C)C)c1`, 692 s.

On to `Cc1ccc(-c2nc3ncccn3c2Nc2cc(C)ccc2C)cc1`, for which the RP-LC retention time was determined as 825 s. For `CCC(C)(C)C(=O)NC1CCN(C2=NS(=O)(=O)C(c3ccc(C(C)C)cc3)=C2C)CC1` the value was 1020 s; for `Cc1cc(C(=O)N2CCCCC2)c2c(=O)n(Cc3ccc4nonc4c3)c(=O)n(C)c2n1`, 902 s; for `CCCN1CCN(C(=O)C2CCCN(c3nnc4ccc(C(F)(F)F)cn34)C2)CC1` (stereo not drawn), 510 s. In the case of `CCc1ccc(CNC(=O)C2CCCN(c3nnc(C)c4c(C)n(-c5ccccc5)nc34)C2)cc1` (stereo not drawn), the RP-LC retention time turned out to be 795 s.

`Cc1csc(-c2cc(S(=O)(=O)NCc3ccco3)c(C)n2C)n1` gave an RP-LC retention time of 864 s. To `COc1cc(OC)c(NC(=O)N2CCC(n3c(C)nc4cccnc43)CC2)cc1Cl` belongs 711 s; to `CCc1ccc2c(c1)-c1ccccc1S(=O)(=O)N2CC(=O)NCc1cccnc1`, 684 s. `Cc1ccc(CC(=O)NC2CCN(c3ccccc3)C2=O)cc1` (stereo not drawn) gave an RP-LC retention time of 797 s. To `CCCN1CCN(C(=O)c2ccc(-c3ccc(N4CCSCC4)nc3)cc2)CC1` belongs 560 s. To `CCn1cnc2cc(-c3noc(C4CC(=O)N(c5ccc(C)c(C)c5)C4)n3)ccc21` (stereo not drawn) belongs 734 s; to `COCCn1ccc2nc(C)c(C(=O)NCc3ccc4c(c3)OCO4)cc2c1=O`, 664 s; to `CCCN1C(=O)C2CCC(=O)N2c2ccc(C(=O)NC(C)c3ccccc3)cc21` (stereo not drawn), 801 s. To `COc1ccc(OC)c(NC(=O)Cn2c(C(F)(F)F)nc3cc4c(cc32)OCCO4)c1` belongs 881 s; to `CCCN1C(=O)c2c(C(=O)NCCc3cccc(C)c3)ncn2CC1(C)C(=O)NC1CCCC1` (stereo not drawn), 918 s; to `O=C(NCc1ccccn1)C1CCN(c2cc(N3CCSCC3)ncn2)CC1`, 559 s. In turn, `CCOC(=O)c1ccc(N2C(=O)Cn3cccc3C2C(=O)NC2CCCCC2C)cc1` (stereo not drawn) gave an RP-LC retention time of 994 s. Take `CN(C)S(=O)(=O)N1CCC2(CC1)CN(c1cccc(F)c1)C2c1ccccc1` (stereo not drawn): the RP-LC retention time stood at 1250 s. For `COc1ccc(-n2ccc(=O)c(-c3nc(-c4ccccc4Br)no3)n2)cc1` the value was 908 s; for `COc1cccc(C(=O)Nc2ccc3c(c2)Sc2ncccc2C(=O)N3C)c1OC`, 816 s. To `COc1ccc(Cl)cc1C(=O)N1CCN(c2ccc(-c3nc(C)c(C)s3)cn2)CC1` belongs 956 s; to `CCc1nnc(C2CN(C)CC23CCN(S(=O)(=O)c2ccccc2C)CC3)o1` (stereo not drawn), 627 s; to `CN1C(=O)C2(CCN(C(=O)Cc3cccc(F)c3)C2)c2ccccc21` (stereo not drawn), 803 s. As for `O=c1ccc(S(=O)(=O)N2CCCCC2)cn1Cc1ccccc1`, the RP-LC retention time is 851 s. For `CCC(C)NC(=O)CS(=O)Cc1cnn(-c2ccccc2)c1-n1cccc1` (stereo not drawn) the value was 756 s; for `CCC1Oc2ccc(S(=O)(=O)N3CCC(C(=O)Nc4ccc5c(c4)OCO5)CC3)cc2NC1=O` (stereo not drawn), 809 s. To `CCCCN(CCCNC(=O)C1CCN(S(=O)(=O)N2CCOCC2)CC1)Cc1ccccc1` belongs 640 s; to `CCCCN(CC(=O)N1CCNCC1)C(=O)c1ccc(Br)cc1`, 589 s. Take `Cc1ccc(CNC(=O)C2(C)Cn3nc(C(=O)NCCCN4CCCCCC4)cc3C(=O)N2C)cc1` (stereo not drawn): the RP-LC retention time was 617 s.

For `CC(C)n1c(N2CCN(C(=O)COc3ccc(F)cc3)CC2)cc(=O)n(C(C)C)c1=O`, the RP-LC retention time stood at 904 s. To `COc1ccccc1N1CCN(c2nc3ccccc3cc2-c2noc(C)n2)CC1` belongs 671 s.

As for `CCOC(=O)/C=C/c1ccc(C(=O)OCC)[nH]1`, the RP-LC retention time worked out at 947 s.

`CC(C)c1ccc(-n2nc(N3CCN(C(=O)Cn4ccnc4)CC3)ccc2=O)cc1`: the RP-LC retention time is 731 s. `COc1ccc(-c2nnc(-c3ccc(Cl)c(S(=O)(=O)N4CCCCC4)c3)o2)cc1` had an RP-LC retention time of 1100 s.

The compound `Cc1ccn2cc(-c3ccc(NS(=O)(=O)c4ccc(F)cc4)cc3)nc2n1` came in with an RP-LC retention time of 649 s.

The compound `CCCn1c(=O)c2sc(N3CCCC3)nc2n(CC(=O)Nc2cc(F)cc(F)c2)c1=O` yielded an RP-LC retention time of 902 s. For `CCC(CO)Nc1nc(NCc2ccccc2)c2ncn(C(C)C)c2n1` (stereo not drawn) the value was 630 s; for `CCOC(=O)c1c(C)oc2nc(C)nc(NCc3cccc(OC)c3)c12`, 1080 s. `O=C(c1ccc2[nH]ccc2c1)N1CCN(c2cc(-c3ccccc3)[nH]n2)CC1` displayed an RP-LC retention time of 728 s. Take `COc1cccc(NC(=O)CN2C(=O)C3CCCCN3c3ccc(S(=O)(=O)N(C)C)cc32)c1` (stereo not drawn): the RP-LC retention time was 902 s. To `CC(=O)Nc1cccc(C2=NN(C(C)=O)C(c3cccs3)C2)c1` (stereo not drawn) belongs 685 s; to `Cc1ccc(-n2cc3c(N4CCCC(C(=O)NCc5ccc(C)c(C)c5)C4)ncnc3n2)cc1` (stereo not drawn), 772 s; to `Cc1cnc(C2CCN(S(=O)(=O)c3ccccc3)C2)n1C(C)C` (stereo not drawn), 564 s.
